The test system of assay [1] is LNCaP/AR cells. Briefly: Inhibition of proliferation of LNCaP/AR prostate cancer cells (CCK-8). It is filed as cell-based. The following applies: proliferation of LNCap/AR cells, 6 days, CCK-8, read-out: IC50.
Assay [2] addresses T1, androgen receptor (AR) (Homo sapiens, UniProt P10275).
T1 sequence (P10275 1-920): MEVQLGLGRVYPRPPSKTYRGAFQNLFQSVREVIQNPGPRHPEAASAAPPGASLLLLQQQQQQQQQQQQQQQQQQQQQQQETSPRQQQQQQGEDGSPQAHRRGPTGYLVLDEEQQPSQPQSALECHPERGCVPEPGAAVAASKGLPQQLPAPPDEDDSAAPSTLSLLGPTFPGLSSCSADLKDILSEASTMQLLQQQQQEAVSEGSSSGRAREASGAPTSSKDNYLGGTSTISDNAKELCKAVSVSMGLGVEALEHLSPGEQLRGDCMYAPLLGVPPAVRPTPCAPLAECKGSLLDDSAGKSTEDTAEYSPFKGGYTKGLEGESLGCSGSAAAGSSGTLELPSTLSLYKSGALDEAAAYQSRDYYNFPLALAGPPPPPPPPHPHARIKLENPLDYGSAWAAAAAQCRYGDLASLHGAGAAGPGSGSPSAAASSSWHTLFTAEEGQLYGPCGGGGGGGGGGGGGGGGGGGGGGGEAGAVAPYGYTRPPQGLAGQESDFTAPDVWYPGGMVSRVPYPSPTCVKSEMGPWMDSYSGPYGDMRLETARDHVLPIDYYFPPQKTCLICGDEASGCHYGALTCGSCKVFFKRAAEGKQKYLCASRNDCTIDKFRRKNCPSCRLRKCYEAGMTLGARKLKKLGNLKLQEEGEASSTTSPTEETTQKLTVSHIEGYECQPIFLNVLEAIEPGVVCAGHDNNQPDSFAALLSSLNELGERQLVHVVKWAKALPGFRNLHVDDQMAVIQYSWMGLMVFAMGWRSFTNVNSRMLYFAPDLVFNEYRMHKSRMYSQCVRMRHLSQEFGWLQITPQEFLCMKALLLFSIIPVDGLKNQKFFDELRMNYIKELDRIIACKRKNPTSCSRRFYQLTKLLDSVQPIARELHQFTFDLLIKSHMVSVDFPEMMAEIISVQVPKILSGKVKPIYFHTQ
Description: Degradation of androgen receptor (AR) protein in VCaP cells by ELISA. The assay is classed as cell-based. The settings on record: for inhibition at 0.1 µM: percentage of degraded AR at 100 nM, VCaP cells, 16 h, ELISA, read-out: % degradation. A general note: An ELISA detects its analyte on a solid surface through an enzyme-linked reagent.

Broadly, the IC50 is the concentration at which inhibition is half-maximal.

Read-outs that look alike come from different tables or passages of the source.

Turning to `[2H]C([2H])([2H])N(C(=O)c1ccc(C#CCCCOCC(=O)N[C@H](C(=O)N2C[C@H](O)C[C@H]2C(=O)N[C@@H](C)c2ccc(-c3scnc3C)cc2)C(C)(C)C)cc1)[C@H]1C(C)(C)[C@H](Oc2ccc(C#N)c(Cl)c2)C1(C)C` [Compound 22], in assay [1] (144 h), the IC50 is under 100 nM. Besides, in assay [2], the inhibition at 0.1 µM was 25 to 49%.

As for `[2H]C([2H])([2H])N(C(=O)c1ccc(C#CCCCCOCC(=O)N[C@H](C(=O)N2C[C@H](O)C[C@H]2C(=O)N[C@@H](C)c2ccc(-c3scnc3C)cc2)C(C)(C)C)cc1)[C@H]1C(C)(C)[C@H](Oc2ccc(C#N)c(Cl)c2)C1(C)C` [Compound 23], in assay [1] (144 h), the IC50 is under 100 nM. Besides, the inhibition at 0.1 µM in assay [2] is 25 to 49%.

Consider `[2H]C([2H])([2H])N(C(=O)c1ccc(C#CCCCCCOCC(=O)N[C@H](C(=O)N2C[C@H](O)C[C@H]2C(=O)N[C@@H](C)c2ccc(-c3scnc3C)cc2)C(C)(C)C)cc1)[C@H]1C(C)(C)[C@H](Oc2ccc(C#N)c(Cl)c2)C1(C)C` [Compound 24], for which the IC50 in assay [1] (144 h) was under 100 nM. The inhibition at 0.1 µM in assay [2] was 50 to 79%.

Turning to `[2H]C([2H])([2H])N(C(=O)c1ccc(C#CCCOCC(=O)N[C@H](C(=O)N2C[C@H](O)C[C@H]2C(=O)N[C@@H](C)c2ccc(-c3scnc3C)cc2)C(C)(C)C)cc1)[C@H]1C(C)(C)[C@H](Oc2ccc(C#N)c(Cl)c2)C1(C)C` [Compound 26], in assay [1] (144 h), the IC50 was under 100 nM. Besides, the inhibition at 0.1 µM in assay [2] is under 25%.

In the case of `Cc1ncsc1-c1ccc([C@H](C)NC(=O)[C@@H]2C[C@@H](O)CN2C(=O)[C@@H](NC(=O)COCCC#Cc2ccc3c(c2)CN([C@H]2C(C)(C)[C@H](Oc4ccc(C#N)c(Cl)c4)C2(C)C)C3=O)C(C)(C)C)cc1` [Compound 27], the IC50 in assay [1] (144 h) was under 100 nM. Also, the inhibition at 0.1 µM in assay [2] was in the range of 50 to 79%.

Consider `[2H]C([2H])([2H])N(C(=O)c1ccc(C#CCCCNC(=O)C2(C(=O)N[C@H](C(=O)N3C[C@H](O)C[C@H]3C(=O)N[C@@H](C)c3ccc(-c4scnc4C)cc3)C(C)(C)C)CC2)cc1)[C@H]1C(C)(C)[C@H](Oc2ccc(C#N)c(Cl)c2)C1(C)C` [Compound 28], for which, in assay [1] (144 h), the IC50 is under 100 nM. Also, the inhibition at 0.1 µM in assay [2] was 25 to 49%.

`Cc1ncsc1-c1ccc([C@H](C)NC(=O)[C@@H]2C[C@@H](O)CN2C(=O)[C@@H](NC(=O)COCCCN2CCN(c3ccc4c(c3)CN(C3C(C)(C)C(Oc5ccc(C#N)c(Cl)c5)C3(C)C)C4=O)CC2)C(C)(C)C)cc1` (some centres unmarked) [Compound 31]: the IC50 in assay [1] (144 h) is under 100 nM. For the same compound, the inhibition at 0.1 µM in assay [2] fell in the range of 50 to 79%.

In the case of `Cc1ncsc1-c1ccc([C@H](C)NC(=O)[C@@H]2C[C@@H](O)CN2C(=O)[C@@H](NC(=O)COC2CN(CCC#Cc3ccc4c(c3)CN([C@H]3C(C)(C)[C@H](Oc5ccc(C#N)c(Cl)c5)C3(C)C)C4=O)C2)C(C)(C)C)cc1` [Compound 32, (2s,4r)-1-((s)-2-(2-((1-(4-(2-((1r,3r)-3-(3-chloro-4-cyanophenoxy)-2,2,4,4-tetramethylcyclobutyl)-1-oxoheteroin-5-yl)-3-butyne-1-yl)azetidine-3-yl)oxy)acetamido)-3,3-dimethylbutyryl)-4-hydroxy-N-((S)-1-(4-(4-methylthiazol-5-yl)phenyl)ethyl)pyrrolidine-2-carboxamide], the IC50 in assay [1] (144 h) was under 100 nM. Besides, the inhibition at 0.1 µM in assay [2] was 50 to 79%.

With `[2H]C([2H])([2H])N(C(=O)c1ccc(C#CCCCCOCC(=O)N[C@H](C(=O)N2C[C@H](O)C[C@H]2C(=O)N[C@@H](C)c2ccc(-c3scnc3C)cc2)C(C)(C)C)nc1)[C@H]1C(C)(C)[C@H](Oc2ccc(C#N)c(Cl)c2)C1(C)C` [Compound 33], in assay [1] (144 h), the IC50 lay within 100 to 500 nM. In assay [2], the inhibition at 0.1 µM worked out at 0%.

Take `Cc1ncsc1-c1ccc([C@H](C)NC(=O)[C@H]2C[C@@H](O)CN2C(=O)[C@@H](NC(=O)COCCCCC#Cc2cc3c(cn2)C(=O)N(C2C(C)(C)C(Oc4ccc(C#N)c(Cl)c4)C2(C)C)C3)C(C)(C)C)cc1` (some centres unmarked) [Compound 38]: the IC50 in assay [1] is under 100 nM. The “% degradation” value in assay [2] is reported as “B (key: A: >80%; B: 79%-50%; C: 49%-25%; D: <25%)”.

The values are drawn from patent US20230091225A1, “Bifunctional chimeric heterocyclic compounds for targeted degradation of androgen receptors and use thereof” (HINOVA PHARMACEUTICALS INC., priority 2019, published 2023).
